Four molecules from article PMC7284870, “Antimicrobial Peptides from Rat-Tailed Maggots of the Drone Fly Eristalis tenax Show Potent Activity against Multidrug-Resistant Gram-Negative Bacteria” (Microorganisms, 2020) can be followed below.

Converted amounts (≈) assume the structure as drawn. Read-outs that look alike come from different tables or passages of the source. No end group written: not given here.

For series [1], the system named is Enterobacter cloacae RKI 146/09. Put plainly: microbe, parasite or virus in culture. Type of series: cell-based. The protocol: (§1) The strains that were used in this study (Table 2 and Table S1) were cultivated at 37 °C in cation-adjusted Mueller–Hinton broth (CAMB) in Erlenmeyer flasks, or on the same medium with agar in Petri dishes. Exceptionally, Mycobacterium smegmatis was cultivated at 37 °C in brain heart infusion (BHI) medium that was supplemented with 1% Tween-80 in Erlenmeyer flasks, or on the same medium lacking detergent but with agar in Petri dishes. Strains listed with Robert Koch Institute (RKI) strain numbers are clinical isolates from the RKI strain collection originating from hospitalized patients in Germany. The remaining strains originated from the Sanofi strain collection and they were originally purchased from the American Type Culture Collection or the German Collection of Microorganisms and Cell Cultures. Meropenem/colistin-resistant strains were maintained, as described above, with the appropriate antibiotic added at levels below the minimal inhibitory concentration (MIC).
(§2) The MIC values were determined in 384-well microtiter plates with an assay volume of 20 µL. Immediately before each assay, the cultures of test organisms (bacteria grown for 18 h, Candida albicans and M. smegmatis grown for 48 h) were diluted with the appropriate medium to a density of 1 × 10^6 cells/mL (C. albicans), 1 × 10^5 cells/mL (M. smegmatis) or 5 × 10^5 cells per mL (other species). […] We transferred 2-µL aliquots from this dilution series to new 384-well microtiter plates while using a CyBio-Well 384-channel automated pipettor (Analytic Jena, Jena, Germany) and added 18 µL of the diluted suspension of each test species using a Viafill reagent dispenser (Integra), thus reducing the final peptide concentration 10-fold to the range 1024–0.03125 µg/mL. […] The growth of M. smegmatis was measured using the BacTiter-Glo luminescence test system (Promega, Madison, WI, USA). The growth of the other species was determined by visual inspection of the microtiter plate and turbidimetry based on the optical density at 600 nm (OD600). The MIC was defined as the peptide concentration at which no bacterial growth was observed. We supplemented the test medium with either 150 mM NaCl or 1.25 mM CaCl2 to represent monovalent and divalent cations to simulate physiological conditions.

Series [2] concerns HepG2 cells. The experiment in a line: Cytotoxicity (ATP quantification and neutral red uptake). On the procedure: The cytotoxicity of the AMPs was determined in 96-well microtiter plates with an assay volume of 200 µL. The peptides were dissolved in PBS and a 1:2 dilution series in DMEM-F12 medium (supplemented with 1% nonessential amino acids, 1% sodium pyruvate, and 5% heat-inactivated fetal calf serum) was prepared in nine steps to produce test concentrations of 400, 200, 100, […], 12.5, 6.25, 3.13, and 1.56 μM (1655–6.46 µg/mL for EtCec1-a, 1713–6.68 µg/mL for EtCec2-a, 1622–6.33 µg/mL for EtCec3-a, 2661–10.38 µg/mL for EtDip). Stocks of the mycoplasma-free HepG2 cell line HB-8065 (ATCC) stored in liquid nitrogen were seeded at a density of 20,000 cells/well into 96-well microplates in 100 μL DMEM-F12 supplemented as above. After incubation overnight at 37 ± 1 °C in a 5% CO2 atmosphere, 100 μL of the test solution was added per well in six replicates. Ketoconazole was used as a positive control and PBS as a negative control. The plates were incubated for 24 h, as above, and the cell viability was assessed using the luminescent CellTiter-Glo ATP monitoring kit (Promega) to determine the quantity of ATP.
HepG2 cells and peptides were prepared as described above, and cell viability was assessed based on the ability of lysosomes to store the dye neutral red (Sigma–Aldrich, ST. Louis, MO, USA). The cells were incubated for 3 h with a neutral red solution, washed twice, and lysed. After complete lysis, the quantity of neutral red was determined by measuring the absorption at 540 nm while using a Tecan Genios Pro plate reader.

Series [3] has as its system E. coli RKI 131/08. Put plainly: microbe, parasite or virus in culture. It counts as cell-based, Escherichia coli. The protocol: as §1, §2
Series [4] can be described thus: Plasma stability. To be noted: 37 °C, LC-MS, triplicate; for remaining at 24 h, 5 µM: after 24 h, read-out: peptide remaining in plasma; for hydrolysis in plasma: 5 µM. Type of series: in vitro ADME. On the procedure: EtCec1-a, EtCec2-a, and EtDip were dissolved as 1 mM stock solutions in sterile deionized water and then incubated in 500 µL plasma from different species (human, mouse and rat) to a final concentration of 5 µM (20.7, 21.4, and 33.3 µg/mL for EtCec1-a, EtCec2-a, and EtDip, respectively) at 37 °C. At different time points (0, 1, 4, and 24 h), 100-µL samples were transferred to 500 µL ethanol containing 0.5% (v/v) NH3, and the plasma proteins were precipitated by centrifugation for 20 min. at 1735× g. EtCec1-a, EtCec2-a, and EtDip (10 µL injection volume) were analyzed in triplicate by LC-MS, and their stability was evaluated by comparing samples of with plasma incubated timepoints (t1, t4, t24) to untreated samples (t0). The peptides were separated on an AERIS Peptide 3.6-µm XB-C18 50 × 2.1 mm column (Phenomenex, Torrance, CA, USA) with an ascending acetonitrile gradient in water (that was supplemented with 0.1% formic acid) at a flow rate of 500 µL/min.

The subject of series [5] is Klebsiella oxytoca RKI 52/07. Type of series: cell-based. The method, boiled down: (§3)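 Broth microdilution in cation-adjusted Mueller–Hinton broth at 37 °C, with 18 h cultures diluted to 5 × 10^5 cells/mL and final peptide concentrations of 1024–0.03125 µg/mL. Growth was scored visually and by OD600. MIC is the lowest concentration with no growth; medium was optionally supplemented with 150 mM NaCl or 1.25 mM CaCl2.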

For series [6], the system named is Acinetobacter baumannii ATCC 19606. Type of series: cell-based. In a few lines:
as §3

Series [7] concerns Escherichia coli D31. It counts as cell-based. The method, boiled down: as §3
Series [8] has as its system Staphylococcus aureus ATCC 25923. Type of series: cell-based. The method, boiled down:
as §3

In series [9] the test system is Pseudomonas aeruginosa ATCC 27853. Type of series: cell-based. In a few lines:
as §3

Series [10] has as its system Klebsiella pneumoniae DSM 30104. Type of series: cell-based. The method, boiled down: as §3
In series [11] the test system is K. pneumoniae RKI 93/10. The experiment in a line: microbe, parasite or virus in culture. It counts as cell-based, Klebsiella pneumoniae. The protocol:
as §1, §2

Where [12] appears, read: CAMB + 0.075 µg/mL colistin (Col), n=3.
[13] abbreviates: CAMB adjusted to 150 mM NaCl, n=3.
[14] abbreviates: HepG2, 24 h, cell viability >80%.

Consider “GWLRDFGKRIERTGQNIRDATIQTIGIAQEAANVAATLK-NH2 [EtCec2-NH2]”, for which the MIC is given as 32 µg/mL in [1] (setting [12]); 64 µg/mL in [1] (setting [13]); 32 µg/mL in series [1] (Table 4, CAMB, n=3); 2 µg/mL in series [3] (setting [12]); 16 µg/mL in series [3] (setting [13]); 16 µg/mL in series [3] (Table 4, CAMB, n=3). The MIC is reported as 2 µg/mL in series [5] (setting [12]); 32 µg/mL in series [5] (Table 5, CAMB, n=3); 8 µg/mL in series [6] (setting [12]); 8 µg/mL in series [6] (setting [13]); 8 µg/mL in [6] (CAMB, 18 h, 37 °C, n = 4); 8 µg/mL in series [6] (Table 4, CAMB, n=3). Also, the MIC is 4 µg/mL in series [7] (CAMB, 18 h, 37 °C, n = 4); over 1024 µg/mL in series [8] (CAMB, 18 h, 37 °C, n = 4); over 1024 µg/mL in [9] (CAMB, 18 h, 37 °C, n = 4); 2 µg/mL in series [10] (setting [12]); 32 µg/mL in [10] (setting [13]); 16 µg/mL in series [10] (CAMB, 18 h, 37 °C, n = 4). For the same molecule, the MIC came to 16 µg/mL in [10] (Table 4, CAMB, n=3); 8 µg/mL in [11] (setting [12]); 256 µg/mL in series [11] (setting [13]); 64 µg/mL in series [11] (Table 4, CAMB, n=3). Further, the NOEC in series [2] (setting [14]) is listed as 535 µg/mL. Besides, the fraction remaining at 24 h, 5 µM in series [4] (human plasma) amounted to 22%. Also, the hydrolysis in plasma entry in [4] (mouse plasma, within 24 h) is given as “completely hydrolyzed”; in series [4] (rat plasma, within 24 h), “completely hydrolyzed”.

As for `C[C@@H](O)[C@H]1C(=O)N2C(C(=O)O)=C(S[C@@H]3CN[C@H](C(=O)N(C)C)C3)[C@H](C)[C@H]12` [MEM, meropenem], the MIC was 16 µg/mL (≈ 41.7 µM) in series [1] (Enterobacter cloacae, RKI146/09); 32 µg/mL (≈ 83.4 µM) in series [3] (Escherichia coli, RKI131/08); 32 µg/mL (≈ 83.4 µM) in series [5] (Table S1, RKI 52/07); 64 µg/mL (≈ 167 µM) in series [11] (Klebsiella pneumoniae, RKI93/10).

For “QFNMQGGGSPRQGFDVNANARFPIWQSQNARNSVHGTASYAQHLGGPYGNSRPNFGGGLQFT [EtDip, diptericin-like peptide of Eristalis tenax]”, the MIC in series [1] (setting [12]) is given as over 1024 µg/mL; in series [1] (Table 5, CAMB, n=3) it was over 1024 µg/mL; in [3] (setting [12]) it was 4 µg/mL; in [3] (Table 5, CAMB, n=3), over 1024 µg/mL; in [5] (setting [12]), 4 µg/mL; in [5] (Table 5, CAMB, n=3), over 1024 µg/mL. Further, the MIC in series [6] (setting [12]) is over 1024 µg/mL; in series [6] (CAMB, 18 h, 37 °C, n = 4) it was over 1024 µg/mL; in series [6] (Table 5, CAMB, n=3) it was over 1024 µg/mL; in series [7] (CAMB, 18 h, 37 °C, n = 4), over 1024 µg/mL; in [8] (CAMB, 18 h, 37 °C, n = 4), over 1024 µg/mL; in series [9] (CAMB, 18 h, 37 °C, n = 4) it was over 1024 µg/mL. Moreover, the MIC in [10] (setting [12]) is on record as 4 µg/mL; in [10] (CAMB, 18 h, 37 °C, n = 4), over 1024 µg/mL; in series [10] (Table 5, CAMB, n=3), over 1024 µg/mL; in series [11] (setting [12]), over 1024 µg/mL; in series [11] (Table 5, CAMB, n=3), over 1024 µg/mL. In addition, in series [2] (setting [14]), the NOEC is reported as over 1330 µg/mL. For the same molecule, the hydrolysis in plasma in series [4] (human plasma, after 1 h) is at least 83%; in series [4] (mouse plasma, after 1 h), at least 83%; in series [4] (rat plasma, after 1 h), at least 83%.

In the case of “GFLKKIGKKLEGAVQRTRDATIQTIAVAQAAANVAATAKQ-NH2 [EtCec1-NH2]”, in [2], the NOEC entry is “greater than 1655 µg/mL”. The MIC in [3] (RKI 131/08, 18 h) is reported as 4 µg/mL; in series [6] (ATCC 19606, 18 h) it was 8 µg/mL; in series [7] (D31, 18 h), 4 µg/mL; in [8] (ATCC 25923, 18 h) it was over 1024 µg/mL; in [9] (ATCC 27853, 18 h) it was 32 µg/mL; in series [10] (DSM 30104, 18 h), 4 µg/mL. The molecule also yielded an MIC in series [11] (RKI 93/10, 18 h) of 8 µg/mL. In addition, in series [4] (human plasma), the fraction remaining at 24 h, 5 µM worked out at 48%. The hydrolysis in plasma entry in series [4] (mouse plasma, within 24 h) is given as “completely hydrolyzed”; in series [4] (rat plasma, within 24 h), “completely hydrolyzed”.

For orientation: share remaining means what is left of the initial amount, in per cent.
